US9756861B2, “Micro-colloidal silicic acid / boric acid composition and a method of preparing a bioenhancing solution and powder” (Barlaa B.V., priority 2009, dated 2017)

System: seeds of wheat
Method: Different levels of silicic acid were tested on seeds and in pot experiments to assess their effects on improvement of seed and the growth and yield in wheat.

In the case of silicic acid, the “plant growth and yield” value (0.25% and 0.50% silicic acid application, all the varieties of wheat) is reported as “highest” and the rate of germination (silicic acid applied at 0.25-0.50% level, wheat seeds) is reported as “increased”.
